According to patent publication US20170044104A1, “NEW PESTICIDAL COMPOUNDS AND USES” (BAYER CROPSCIENCE AG, priority 2013, published 2017):

Columns and labels:
Cooperia curticei = Cooperia curticei (COOPCU) larval mortality assay; conditions: 120 h, after 5 days, read-out: activity (percentage of larval mortality); for mortality at 20 ppm: application rate 20 ppm; for mortality at 4 ppm: application rate 4 ppm
Method: (§1) Solvent: dimethyl sulfoxide
(§2) To produce a suitable preparation of active compound, 10 mg of active compound are dissolved in 0.5 ml solvent, and the concentrate is diluted with “Ringer's solution” to the desired concentration.
Approximately 40 nematode larvae (Cooperia curticei) are transferred into a test tube containing the compound solution.
After 5 days percentage of larval mortality is recorded. 100% efficacy means all larvae are killed; 0% efficacy means no larvae are killed.

Haemonchus contortus = Haemonchus contortus (HAEMCO) larval mortality assay; conditions: 120 h; for mortality at 20 ppm: application rate 20 ppm; for mortality at 20 ppm / mortality at 4 ppm: after 5 days, read-out: activity (percentage of larval mortality); for Emax at 0.8 ppm / Emax at 4 ppm / Emax at 20 ppm: comparative test, 5 dat, read-out: % Efficacy; for mortality at 4 ppm: application rate 4 ppm
Method: as §1, §2
Approximately 40 larvae of the red stomach worm (Haemonchus contortus) are transferred into a test tube containing compound solution.
After 5 days percentage of larval mortality are recorded. 100% efficacy means all larvae are killed, 0% efficacy means no larvae are killed.

Meloidogyne incognita = Meloidogyne incognita (MELGIN) gall formation assay; format: in vivo; conditions: 336 h, application rate 20 ppm, after 14 days, salad seedlings, read-out: nematicidal activity (percentage of gall formation)
Method: Solvent: 125.0 parts by weight of acetone
To produce a suitable preparation of active compound, 1 part by weight of active compound is mixed with the stated amount of solvent, and the concentrate is diluted with water to the desired concentration.
Vessels are filled with sand, a solution of the active ingredient, a suspension containing eggs and larvae of the southern root-knot nematode (Meloidogyne incognita) and salad seeds. The salad seeds germinate and the seedlings grow. Galls develop in the roots.
After 14 days the nematicidal activity is determined on the basis of the percentage of gall formation. 100% means no galls were found and 0% means the number of galls found on the roots of the treated plants was equal to that in untreated control plants.

SMILES	mortality at 20 ppm (Cooperia curticei)	mortality at 20 ppm (Haemonchus contortus)	other results
O=C(NCC(F)(F)c1ccc(-c2ccc(Cl)nc2)cc1F)c1ccccc1C(F)(F)F [Example 1-114]	100%	80%	–
O=C(NCC(F)c1ccc(-c2cccnc2Cl)cc1Cl)c1nccnc1C(F)(F)F (centres unmarked) [Example 1-79]	100%	100%	–
Cc1occc1-c1ccc(CCNC(=O)c2ccccc2C(F)(F)F)cc1 [Example 1-59]	100%	–	–
COc1ccc(-c2ccc(C(F)(F)CNC(=O)c3ccccc3C(F)(F)F)c(C(F)(F)F)c2)cn1 [Example 1-127]	100%	100%	–
CN(C)c1ccc(-c2ccc(C(F)(F)CNC(=O)c3ccccc3C(F)(F)F)c(C(F)(F)F)c2)cn1 [Example 1-125]	80%	–	–
O=C(NCCc1ccc(-c2cnccc2Cl)cc1Cl)c1ccccc1C(F)(F)F [Example 1-31]	100%	–	–
CC(F)(CNC(=O)c1cccnc1C(F)(F)F)c1ccc(-c2ccc(F)nc2)cc1Cl (centres unmarked) [Example 1-129]	–	–	pest or weed control at 20 ppm (Meloidogyne incognita): 100%
CC(F)(CNC(=O)c1nccnc1C(F)(F)F)c1ccc(-c2cncc(F)c2)cc1Cl (centres unmarked) [Example 1-102]	100%	100%	–
O=C(NCC(F)(F)c1ccc(-c2ccc(F)nc2)cc1C(F)(F)F)c1cccnc1C(F)(F)F [Example 1-140]	–	–	pest or weed control at 20 ppm (Meloidogyne incognita): 90%
Cc1nc(Cl)ccc1-c1cccc(CCNC(=O)c2ccccc2C(F)(F)F)c1 [Example 1-5]	–	90%	–
O=C(NCCc1ccc(-c2cccnc2)cc1)c1ccccc1C(F)(F)F [Example 1-57]	100%	80%	–
CC(C)Oc1ccc(-c2ccc(CCNC(=O)c3ccccc3C(F)(F)F)c(Cl)c2)cn1 [Example 1-43]	100%	100%	Emax at 0.8 ppm (Haemonchus contortus): 100%; Emax at 4 ppm (Haemonchus contortus): 100%; Emax at 20 ppm (Haemonchus contortus): 100%
O=C(NCCc1ccc(-c2ccc(C(F)(F)F)nc2)cc1)c1cccnc1C(F)(F)F [Example 1-19]	100%	–	pest or weed control at 20 ppm (Meloidogyne incognita): 90%
Cc1ncccc1-c1ccc(CCNC(=O)c2cccnc2C(F)(F)F)cc1 [Example 1-21]	100%	–	–
CC(C)Oc1ccc(-c2ccc(C(F)(F)CNC(=O)c3ccccc3C(F)(F)F)c(Cl)c2)cn1 [Example 1-91]	100%	–	–
O=C(NCC(F)(F)c1ccc(-c2ccc(C(F)(F)F)nc2)cc1F)c1ccccc1C(F)(F)F [Example 1-105]	90%	–	–
O=C(NCC(F)(F)c1ccc(-c2cncc(F)c2)cc1C(F)(F)F)c1ccccc1C(F)(F)F [Example 1-122]	100%	100%	–
CC(F)(CNC(=O)c1ccccc1C(F)(F)F)c1ccc(-c2ccc(F)nc2)cc1Cl (centres unmarked) [Example 1-130, N-{2-[2-chloro-4-(6-fluoropyridin-3-yl)phenyl]-2-fluoropropyl}-2-(trifluoromethyl) benzamide]	–	–	pest or weed control at 20 ppm (Meloidogyne incognita): 100%
Cc1nc(C)c(-c2ccc(CCNC(=O)c3ccccc3C(F)(F)F)c(Cl)c2)s1 [Example 1-50]	90%	–	–

SMILES	mortality at 20 ppm (Cooperia curticei)	mortality at 20 ppm (Haemonchus contortus)	other results
O=C(NCCc1cccc(-c2cncc(F)c2)c1)c1ccccc1C(F)(F)F [Example 1-3]	–	90%	–
O=C(NCC(F)c1ccc(-c2cncc(Cl)c2)cc1Cl)c1cccnc1C(F)(F)F (centres unmarked) [Example 1-83]	100%	100%	–
O=C(NCCc1ccc(-c2ccnc(Cl)c2)cc1)c1cccnc1C(F)(F)F [Example 1-26]	90%	–	–
Cn1cc(-c2ccc(CCNC(=O)c3ccccc3C(F)(F)F)cc2)cn1 [Example 1-60]	100%	80%	–
CN(C)c1ncc(-c2ccc(C(F)(F)CNC(=O)c3ccccc3C(F)(F)F)c(F)c2)cn1 [Example 1-146]	100%	–	–
O=C(NCC(F)(F)c1ccc(-c2ccc(C(F)(F)F)nc2)cc1C(F)(F)F)c1ccccc1C(F)(F)F [Example 1-124]	90%	–	mortality at 4 ppm (Haemonchus contortus): 90%
O=C(NCC(F)c1ccc(-c2ccc(C(F)(F)F)nc2)cc1Cl)c1cccnc1C(F)(F)F (centres unmarked) [Example 1-71]	100%	90%	–
O=C(NCC(F)c1ccc(-c2ccc(C(F)(F)F)nc2)cc1Cl)c1nccnc1C(F)(F)F (centres unmarked) [Example 1-72]	100%	100%	–
O=C(NCCc1ccc(-c2ccc(OCC(F)(F)F)nc2)cc1Cl)c1ccccc1C(F)(F)F [Example 1-32]	100%	90%	–
O=C(NCCc1ccc(-c2ccc(OCC(F)(F)F)nc2)cc1)c1cccnc1C(F)(F)F [Example 1-18]	100%	–	–
O=C(NCCc1ccc(-c2ccnc(F)c2)cc1)c1ccccc1C(F)(F)F [Example 1-51]	100%	–	–
O=C(NCCc1ccc(-c2cccnc2Cl)cc1)c1ccccc1C(F)(F)F [Example 1-56]	80%	80%	–
O=C(NCCc1ccc(-c2ccnc(Cl)c2)cc1)c1ccccc1C(F)(F)F [Example 1-64]	100%	80%	–
O=C(NCCc1ccc(-c2ccnc(F)c2)cc1)c1cccnc1C(F)(F)F [Example 1-27]	80%	80%	–
O=C(NCCc1ccc(-c2ccncc2)cc1)c1ccccc1C(F)(F)F [Example 1-13]	80%	–	–
COc1ccc(-c2ccc(C(F)(F)CNC(=O)c3ccccc3C(F)(F)F)c(F)c2)cn1 [Example 1-110]	100%	90%	–
O=C(NCCc1ccc(-c2ccc(C(F)(F)F)nc2)cc1)c1ccccc1C(F)(F)F [Example 1-12]	100%	90%	–
O=C(NCCc1ccc(-c2ccncc2)cc1Cl)c1ccccc1C(F)(F)F [Example 1-36]	80%	–	–
Cc1occc1-c1ccc(CCNC(=O)c2ccccc2C(F)(F)F)c(Cl)c1 [Example 1-40]	100%	100%	–

SMILES	mortality at 20 ppm (Cooperia curticei)	mortality at 20 ppm (Haemonchus contortus)	other results
O=C(NCCc1ccc(-c2ccnc(F)c2)cc1Cl)c1ccccc1C(F)(F)F [Example 1-34]	100%	–	–
O=C(NCCc1ccc(-c2ccc(C(F)(F)F)nc2)cc1Cl)c1ccccc1C(F)(F)F [Example 1-38]	100%	100%	Emax at 0.8 ppm (Haemonchus contortus): 100%; Emax at 4 ppm (Haemonchus contortus): 100%; Emax at 20 ppm (Haemonchus contortus): 100%
Cc1occc1-c1ccc(CCNC(=O)c2cccnc2C(F)(F)F)cc1 [Example 1-23]	80%	–	–
COc1cncc(-c2ccc(C(F)(F)CNC(=O)c3ccccc3C(F)(F)F)c(C(F)(F)F)c2)c1 [Example 1-121]	80%	80%	–
O=C(NCCc1ccc(-c2ccc(Cl)nc2)cc1)c1ccccc1C(F)(F)F [Example 1-15]	100%	–	mortality at 4 ppm (Haemonchus contortus): 90%
O=C(NCCc1ccc(-c2cc(Cl)nc(Cl)c2)cc1Cl)c1ccccc1C(F)(F)F [Example 1-46]	100%	–	–
O=C(NCCc1ccc(-c2ccoc2)cc1)c1ccccc1C(F)(F)F [Example 1-52]	100%	–	–
O=C(NCCc1ccc(-c2ccc(F)nc2)cc1)c1ccccc1C(F)(F)F [Example 1-62]	100%	100%	Emax at 0.8 ppm (Haemonchus contortus): 80%; Emax at 4 ppm (Haemonchus contortus): 90%; Emax at 20 ppm (Haemonchus contortus): 100%
O=C(NCCc1ccc(-c2cccc(Cl)n2)cc1)c1ccccc1C(F)(F)F [Example 1-55]	100%	–	–
O=C(NCCc1ccc(-c2ccoc2)cc1Cl)c1ccccc1C(F)(F)F [Example 1-35]	100%	100%	Emax at 0.8 ppm (Haemonchus contortus): 80%; Emax at 4 ppm (Haemonchus contortus): 90%; Emax at 20 ppm (Haemonchus contortus): 100%
CN(C)c1ncc(-c2ccc(C(F)(F)CNC(=O)c3ccccc3C(F)(F)F)c(C(F)(F)F)c2)cn1 [Example 1-149]	–	–	mortality at 4 ppm (Cooperia curticei): 90%
O=C(NCCc1ccc(-c2cccc(Cl)n2)cc1Cl)c1ccccc1C(F)(F)F [Example 1-41]	100%	90%	–
O=C(NCCc1ccc(-c2ccc(OCC(F)(F)F)nc2)cc1)c1ccccc1C(F)(F)F [Example 1-58]	100%	80%	–
O=C(NCCc1ccc(-c2cncc(F)c2)cc1)c1ccccc1C(F)(F)F [Example 1-14]	100%	90%	–
Cc1cc(-c2ccc(F)nc2)ccc1C(F)(F)CNC(=O)c1ccccc1C(F)(F)F [Example 1-136]	–	–	pest or weed control at 20 ppm (Meloidogyne incognita): 90%
CC(F)(CNC(=O)c1c(F)cccc1F)c1ccc(-c2cncc(F)c2)cc1Cl (centres unmarked) [Example 1-103]	–	100%	–
O=C(NCC(F)(F)c1ccc(-c2ccc(Cl)nc2)cc1Cl)c1cccnc1C(F)(F)F [Example 1-67]	–	90%	mortality at 4 ppm (Cooperia curticei): 90%
Cc1cc(-c2ccc(CCNC(=O)c3ccccc3C(F)(F)F)cc2)ccn1 [Example 1-11]	–	80%	–
O=C(NCCc1ccc(-c2ccnc(Cl)c2)cc1Cl)c1ccccc1C(F)(F)F [Example 1-65]	90%	–	–
